According to ChEMBL document CHEMBL1152104, “Synthesis of partially non-peptidic neurotensin mimetics” (Bioorg Med Chem Lett, 1994):

How the values were obtained:
[1] = molecular target: T1, Neurotensin receptor type 1 (Rattus norvegicus, UniProt P20789); experiment: Equilibrium dissociation constant at cloned rat Neurotensin receptor (NT) receptor expressed in CHO-K1 cells; 0.3-0.7 uM; assay type: cell-based
[2] = organism: Homo sapiens; experiment: Concentration required to stimulate cGMP production in NIE-115 neuroblastoma cells at higher doses in 10-100 uM range; assay type: functional, cell-based
[3] = molecular target: T1, Neurotensin receptor type 1; experiment: Equilibrium dissociation constant at cloned rat Neurotensin receptor (NT) receptor
[4] = test system: CHO-K1; experiment: Effect on PI turnover in intact CHO-K1 cells; assay type: functional, cell-based; details: Cricetulus griseus

T1 sequence (P20789 whole entry): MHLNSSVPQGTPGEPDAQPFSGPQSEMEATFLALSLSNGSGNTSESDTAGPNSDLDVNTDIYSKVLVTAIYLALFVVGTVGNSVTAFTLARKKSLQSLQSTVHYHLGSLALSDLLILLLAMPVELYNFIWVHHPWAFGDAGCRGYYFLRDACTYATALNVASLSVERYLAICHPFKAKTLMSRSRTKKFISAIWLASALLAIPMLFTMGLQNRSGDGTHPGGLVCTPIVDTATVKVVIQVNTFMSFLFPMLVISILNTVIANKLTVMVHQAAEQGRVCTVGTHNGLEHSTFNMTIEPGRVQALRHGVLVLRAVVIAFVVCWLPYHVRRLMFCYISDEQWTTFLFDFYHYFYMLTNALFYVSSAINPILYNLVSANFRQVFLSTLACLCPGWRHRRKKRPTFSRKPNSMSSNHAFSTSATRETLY

Row | Structure (SMILES) | Kd [1] | EC50 [2] | Kd [3] | EC50 [4]
1 | CC[C@H](C)[C@H](NC(=O)[C@H](Cc1ccc(O)cc1)NC(=O)c1[nH]c2c(OCCCCCN=C(N)N)cccc2c1CCCCCCN=C(N)N)C(=O)N[C@@H](CC(C)C)C(=O)O.O=C(O)C(F)(F)F | 300 nM | 19000 nM | – | –
2 | CC[C@H](C)[C@H](NC(=O)[C@H](Cc1ccc(O)cc1)NC(=O)c1[nH]c2ccc(OCCCCCN)cc2c1CCCCCCN)C(=O)N[C@@H](CC(C)C)C(=O)O | – | – | ~40000 nM | –
3 | CC[C@H](C)[C@H](NC(=O)[C@H](Cc1c[nH]c2ccccc12)NC(=O)c1[nH]c2c(OCCCCCN=C(N)N)cccc2c1CCCCCCN=C(N)N)C(=O)N[C@@H](CC(C)C)C(=O)O | 300 nM | – | – | –
4 | CC[C@H](C)[C@H](NC(=O)[C@H](Cc1ccc(O)cc1)NC(=O)c1[nH]c2c(OCCCCCN)cccc2c1CCCCCCN)C(=O)N[C@@H](CC(C)C)C(=O)O | 300 nM | – | – | ~1300 nM
